From patent US11332459B2 (TEIJIN PHARMA LIMITED, priority 2017, dated 2022) come the findings set out here.

This experiment concerns the target T1, human TRPC6 (Homo sapiens, UniProt Q9Y210).
T1 construct: expressed in transfected cells
T1 sequence (Q9Y210 1-931): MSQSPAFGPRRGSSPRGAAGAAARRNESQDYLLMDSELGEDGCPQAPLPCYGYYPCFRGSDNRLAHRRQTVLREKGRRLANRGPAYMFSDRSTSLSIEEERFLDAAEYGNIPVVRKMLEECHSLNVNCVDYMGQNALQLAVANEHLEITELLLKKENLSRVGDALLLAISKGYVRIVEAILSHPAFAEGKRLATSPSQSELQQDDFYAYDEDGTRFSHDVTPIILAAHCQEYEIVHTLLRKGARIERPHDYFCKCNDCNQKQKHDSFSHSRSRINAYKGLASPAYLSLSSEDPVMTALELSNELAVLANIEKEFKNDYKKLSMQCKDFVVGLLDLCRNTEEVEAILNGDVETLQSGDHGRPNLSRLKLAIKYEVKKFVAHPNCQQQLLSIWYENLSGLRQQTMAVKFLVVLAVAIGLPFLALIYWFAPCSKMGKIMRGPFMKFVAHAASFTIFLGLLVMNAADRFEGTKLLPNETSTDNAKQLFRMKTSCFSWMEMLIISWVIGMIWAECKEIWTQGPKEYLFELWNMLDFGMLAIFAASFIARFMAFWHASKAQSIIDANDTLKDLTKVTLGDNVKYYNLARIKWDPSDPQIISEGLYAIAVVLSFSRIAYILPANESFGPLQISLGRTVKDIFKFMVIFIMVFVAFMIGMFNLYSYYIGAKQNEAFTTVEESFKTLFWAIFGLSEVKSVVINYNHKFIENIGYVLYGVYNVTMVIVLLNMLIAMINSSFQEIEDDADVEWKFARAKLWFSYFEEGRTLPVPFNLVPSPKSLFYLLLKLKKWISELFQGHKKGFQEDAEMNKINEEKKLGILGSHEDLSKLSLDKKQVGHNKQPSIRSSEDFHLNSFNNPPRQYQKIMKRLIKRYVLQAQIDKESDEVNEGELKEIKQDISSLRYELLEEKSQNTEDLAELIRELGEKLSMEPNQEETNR
The experiment is described as follows: TRPC6 calcium flux assay (FLIPR, OAG-stimulated calcium influx). Conditions: HEK293 cells stably transfected with human TRPC6, read-out: hTRPC6 Potency. Type of experiment: cell-based. Put shortly: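 IC50 derived by plotting background-corrected peak fluorescence (180 s window, normalized to OAG-triggered signal vs buffer) against dose. Stable human TRPC6 HEK293 line was dye-loaded, exposed to compound 25 min, then challenged with 50 uM final OAG in 2 mM Ca2+ HEPES buffer pH 7.2, 0.5% DMSO.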
(In general: Calcium flux is commonly read through the fluorescence of an indicator in the cells.)

The structures appear in SMILES notation. Where a name gives a salt, the structure may show the parent alone.

For `N#Cc1ccc(Cn2c(N3CC[C@@H](F)[C@H](N)C3)nc3cc(F)ccc32)nc1` [Example 49, 6-((2-((3R,4R)-3-amino-4-fluoropiperidin-1-yl)-5-fluoro-1H-benzo[d]imidazol-1-yl)methyl)nicotinonitrile hydrochloride], the IC50 was found to be 1.09 nM.
As to `N#Cc1ccc(Cn2c(N3CCC[C@H](N)C3)nc3ccc(C#N)cc32)nc1` [Example 51, (S)-2-(3-aminopiperidin-1-yl)-1-((5-cyanopyridin-2-yl)methyl)-1H-benzo[d]imidazole-6-carbonitrile], the IC50 stood at 6.47 nM.
In the case of `N#Cc1ccc(Cn2c(N3CCC[C@H](N)C3)nc3cc(C#N)ccc32)nc1` [Example 52, (S)-2-(3-aminopiperidin-1-yl)-1-((5-cyanopyridin-2-yl)methyl)-1H-benzo[d]imidazole-5-carbonitrile], the IC50 stood at 24.2 nM.
Turning to `N#Cc1ccc(Cn2c(N3CC[C@@H](F)[C@H](N)C3)nc3ccc(C#N)cc32)nc1` [Example 53, 2-((3R,4R)-3-amino-4-fluoropiperidin-1-yl)-1-((5-cyanopyridin-2-yl)methyl)-1H-benzo[d]imidazole-6-carbonitrile], the IC50 came out at 1.52 nM.
Regarding `N#Cc1ccc(Cn2c(N3CC[C@@H](F)[C@H](N)C3)nc3cc(C#N)ccc32)nc1` [Example 54, 2-((3R,4R)-3-amino-4-fluoropiperidin-1-yl)-1-((5-cyanopyridin-2-yl)methyl)-1H-benzo[d]imidazole-5-carbonitrile], the IC50 was found to be 5.52 nM.
On to `N#Cc1ccc(Cn2c(N3CCC(F)(F)[C@H](N)C3)nc3ccc(C#N)cc32)nc1` [Example 55, (R)-2-(3-amino-4,4-difluoropiperidin-1-yl)-1-((5-cyanopyridin-2-yl)methyl)-1H-benzo[d]imidazole-6-carbonitrile], for which the IC50 came out at 3.97 nM.
For `N#Cc1ccc(Cn2c(N3CCC(F)(F)[C@H](N)C3)nc3cc(C#N)ccc32)nc1` [Example 56, (R)-2-(3-amino-4,4-difluoropiperidin-1-yl)-1-((5-cyanopyridin-2-yl)methyl)-1H-benzo[d]imidazole-5-carbonitrile], the IC50 stood at 13.5 nM.
Regarding `N#Cc1ccc(Cn2c(N3CCC[C@H](N)C3)nc3c(Cl)cc(Cl)cc32)nc1` [Example 57, (S)-6-((2-(3-aminopiperidin-1-yl)-4,6-dichloro-1H-benzo[d]imidazol-1-yl)methyl)nicotinonitrile], the IC50 was 0.784 nM.
In the case of `N#Cc1ccc(Cn2c(N3CC[C@@H](F)[C@H](N)C3)nc3c(Cl)cc(Cl)cc32)nc1` [Example 58, 6-((2-((3R,4R)-3-amino-4-fluoropiperidin-1-yl)-4,6-dichloro-1H-benzo[d]imidazol-1-yl)methyl)nicotinonitrile], the IC50 was 0.469 nM.
For `N#Cc1ccc(Cn2c(N3CC[C@H](F)[C@H](N)C3)nc3c(Cl)cc(Cl)cc32)nc1` [Example 59, 6-((2-((3R,4S)-3-amino-4-fluoropiperidin-1-yl)-4,6-dichloro-1H-benzo[d]imidazol-1-yl)methyl)nicotinonitrile], the IC50 came out at 0.256 nM.
As for `N#Cc1ccc(Cn2c(N3CCC(F)(F)[C@H](N)C3)nc3c(Cl)cc(Cl)cc32)nc1` [Example 60, (R)-6-((2-(3-amino-4,4-difluoropiperidin-1-yl)-4,6-dichloro-1H-benzo[d]imidazol-1-yl)methyl)nicotinonitrile], the figure is 0.261 nM; as for `N#Cc1ccc(Cn2c(N3CCC[C@H](N)C3)nc3c(F)cc(F)cc32)nc1` [Example 61, (S)-6-((2-(3-aminopiperidin-1-yl)-4,6-difluoro-1H-benzo[d]imidazol-1-yl)methyl)nicotinonitrile], 2.7 nM; as for `N#Cc1ccc(Cn2c(N3CCC[C@H](N)C3)nc3cc(F)cc(F)c32)nc1` [Example 62, (S)-6-((2-(3-aminopiperidin-yl)-5,7-difluoro-1H-benzo[d]imidazol-1-yl)methyl)nicotinonitrile], 60.3 nM.
Consider `N#Cc1ccc(Cn2c(N3CC[C@@H](F)[C@H](N)C3)nc3c(F)cc(F)cc32)nc1` [Example 63, 6-((2-((3R,4R)-3-amino-4-fluoropiperidin-1-yl)-4,6-difluoro-1H-benzo[d]imidazol-1-yl)methyl)nicotinonitrile], for which the IC50 was found to be 0.389 nM.
Turning to `N#Cc1ccc(Cn2c(N3CC[C@@H](F)[C@H](N)C3)nc3cc(F)cc(F)c32)nc1` [Example 64, 6-((2-((3R,4R)-3-amino-4-fluoropiperidin-1-yl)-5,7-difluoro-1H-benzo[d]imidazol-1-yl)methyl)nicotinonitrile], the IC50 is 132 nM.
In the case of `N#Cc1ccc(Cn2c(N3CC[C@H](F)[C@H](N)C3)nc3c(F)cc(F)cc32)nc1` [Example 65, 6-((2-((3R,4S)-3-amino-4-fluoropiperidin-1-yl)-4,6-difluoro-1H-benzo[d]imidazol-1-yl)methyl)nicotinonitrile], the IC50 is 0.598 nM.
Consider `N#Cc1ccc(Cn2c(N3CC[C@H](F)[C@H](N)C3)nc3cc(F)cc(F)c32)nc1` [Example 66, 6-((2-((3R,4S)-3-amino-4-fluoropiperidin-1-yl)-5,7-difluoro-1H-benzo[d]imidazol-1-yl)methyl)nicotinonitrile], for which the IC50 was found to be 237 nM.
In the case of `N#Cc1ccc(Cn2c(N3CCC(F)(F)[C@H](N)C3)nc3cc(F)cc(F)c32)nc1` [Example 67, (R)-6-((2-(3-amino-4,4-difluoropiperidin-1-yl)-5,7-difluoro-1H-benzo[d]imidazol-1-yl)methyl)nicotinonitrile], the IC50 was 272 nM.
The same measure for `N#Cc1ccc(Cn2c(N3CC[C@H](F)[C@H](N)C3)nc3ccc(C#N)cc32)nc1` [Example 68, 2-((3R,4S)-3-amino-4-fluoropiperidin-1-yl)-1-((5-cyanopyridin-2-yl)methyl)-1H-benzo[d]imidazole-6-carbonitrile]: 1.82 nM.
As to `N#Cc1ccc(Cn2c(N3CC[C@H](F)[C@H](N)C3)nc3cc(C#N)ccc32)nc1` [Example 69, 2-((3R,4S)-3-amino-4-fluoropiperidin-1-yl)-1-((5-cyanopyridin-2-yl)methyl)-1H-benzo[d]imidazole-5-carbonitrile], the IC50 came to 14.7 nM.
As for `N#Cc1ccc(Cn2c(N3CCC[C@H](N)C3)nc3ccccc32)nc1` [Example 70, (S)-6-((2-(3-aminopiperidin-1-yl)-1H-benzo[d]imidazol-1-yl)methyl)nicotinonitrile], the figure is 2.32 nM.
As for `N#Cc1ccc(Cn2c(N3CCC(F)(F)[C@H](N)C3)nc3cc(F)ccc32)nc1` [Example 71, (R)-6-((2-(3-amino-4,4-difluoropiperidin-1-yl)-5-fluoro-1H-benzo[d]imidazol-1-yl)methyl)nicotinonitrile hydrochloride], the figure is 5.62 nM; as for `N#Cc1ccc(Cn2c(N3CC[C@@H](F)[C@H](N)C3)nc3cc(F)c(F)cc32)nc1` [Example 72, 6-((2-((3R,4R)-3-amino-4-fluoropiperidin-1-yl)-5,6-difluoro-1H-benzo[d]imidazol-1-yl)methyl)nicotinonitrile], 0.448 nM; as for `N#Cc1ccc(Cn2c(N3CC[C@H](F)[C@H](N)C3)nc3ccccc32)nc1` [Example 73, 6-((2-((3R,4S)-3-amino-4-fluoropiperidin-1-yl)-1H-benzo[d]imidazol-1-yl)methyl)nicotinonitrile], 1.09 nM.
